Experiments:
[1] = tested on: human skin; settings: both, in vivo
[2] = tested on: human skin; settings: 107 subjects
From the text: Subjects fulfilled specific inclusion criteria including not being pregnant or breastfeeding, being over 18 years old, having healthy skin, and not having used any dermatological or cosmetic preparation on the test area within 5 days before the beginning of the study.
Briefly, the tested hydrogels were applied under occlusion on the outer aspect of the upper arm for a defined time. The applications were repeated 9 times over a period of 3 consecutive weeks, a duration necessary for the possible induction of an immune response. The irritancy potential was evaluated and compared to the irritancy potential of the standard, SLS. After a two-week rest period with no treatment, the tested hydrogels were applied under occlusion to the induction site and to a virgin site on the volar side of the underarm for a defined period of time to trigger a possible immune response.
The final pH of the hydrogels was adjusted to about 5.5.
Possible skin reactions to the products were scored according to the scale reproduced in Table 5 above.
In summary, the test product is considered to have a low sensitization potential if none of the subjects reported a grade 2 or higher dermal response on days 38 to 40 and no more than two subjects reported a grade 1 dermal response on days 38 to 40. A moderate sensitization potential is assigned if a maximum of 2 subjects reported a grade 2 or higher dermal response on days 38 to 40 and a maximum of 4 subjects reported a grade 1 response on days 38 to 40. A high sensitization potential is assigned if 3 or more subjects reported a grade 2 or higher dermal response on days 38 to 40 and 5 or more subjects reported a grade 1 response on days 38 to 40.
The cumulative irritancy score represents the sum of the irritancy scores assigned on days 3, 5, 8, 10, 12, 15, 17, 19, and 22. […] An irritancy score was assigned to each induction and virgin site on days 36, 38, 39 and 40, and their respective scores were added up separately to produce the cumulative irritancy score presented in the fourth column of Table 10. The fifth and sixth columns indicate the number of subjects that experienced a grade 2 or greater response on each of days 38, 39 and 40, and the number of subjects that experienced a grade 1 response on each of days 38, 39, and 40.

[3] = Uptake rates of active agents into hydrogel samples; format: physicochemical; settings: for time to reach the same concentration in the hydrogel as the uptake solution: 1 mm hydrogel samples, methylene blue 1 ppm, p-nitrophenol 0.4 wt. %
Experimental: Uptake solutions of methylene blue (1 ppm) and p-nitrophenol (0.4 wt. %) were prepared. […] The hydrogels were then carefully blotted of excess solution and were each transferred into a second beaker containing 30 ml of a 10 mM phosphate buffer solution with a pH of 6 to equilibrate.
The hydrogels were continuously agitated to ensure that the equilibrium state was reached. The uptake of p-nitrophenol and methylene blue was assumed to correspond to the amount that was released into the washing buffer solution. […] Methylene blue was similarly measured at 655 nm and the calibration curve was in the range of 0.0025 ppm to 3 ppm.

| concentration in hydrogel relative to the initial uptake solution ([3]; within an hour) | Structure (SMILES) | C: Glazing with peeling & cracking, number of subjects [1] | D: Glazing with fissures, number of subjects [1] | E: Film of dried serious exudate covering all or part of the patch site, number of subjects [1] | F: Small petechial erosions and/or scabs, number of subjects [1] | Maximum single score [1] | Maximum sum [1] | Minimum single score [1] | Minimum sum [1] | N (reacting subjects) [1] | Slight itch, number of subjects [1] | Sum of scores for dermal reactions [1] | Cumulative Irritancy Score ([2]; 22-day induction phase) | Number of reacting subjects ([2]; 22-day induction phase) | Type of Reactivity ([2]; 22-day induction phase) | subjects with slight glazed appearance and/or marked glazing ([2]; induction phase) | time to reach the same concentration in the hydrogel as the uptake solution [3] |
| --- | --- | --- | --- | --- | --- | --- | --- | --- | --- | --- | --- | --- | --- | --- | --- | --- | --- |
| – | CCCCCCCCCCCCOS(=O)(=O)[O-].[Na+] [Positive Control, sodium lauryl sulphate] | 0 | 0 | 0 | 0 | 1 | 3 | 0 | 0 | 19 | 0 | 23.00 | 21 | 11 | Minimal erythema | 20 | – |
| – | O=[N+]([O-])c1ccc(O)cc1 [p-nitrophenol] | – | – | – | – | – | – | – | – | – | – | – | – | – | – | – | about 15 minutes |
| 6 times | CN(C)c1ccc2nc3ccc(=[N+](C)C)cc-3sc2c1 [methylene blue] | – | – | – | – | – | – | – | – | – | – | – | – | – | – | – | less than 1.50 minutes |
